Values of other authors as cited in paper PMC8463260 (Acta Pharmaceutica Sinica. B, 2020).

Experiments:
[1] = in vitro bioactivity compared to native insulin; ref [26],[28]-[31]
[2] = multimerization and serum albumin association; ref [5],[6]

Substance | in vitro potency, fold lower vs native insulin [1] | in vivo half-life [2] [h]
insulin degludec | 6–8 fold | –
insulin detemir: long-acting insulin derivative with hydrophobic modification on B29 lysine | – | 20 to 48
